Experimental data published in patent publication US20150094264A1, “USE OF OBESTATIN FOR MUSCLE REGENERATION” (UNIVERSIDADE DE SANTIAGO DE COMPOSTELA, priority 2012, published 2015).

Columns and labels:
L6E9 myotubes = test: Activation of regulatory enzymes by obestatin in L6E9 myotubes, immunoblot; assay type: cell-based, rat; conditions: obestatin 5 nM
Experimental: FIG. 1. Activation of regulatory enzymes of mitogenesis and myogenesis by obestatin in L6E9 myoblasts and myotubes. Effect of obestatin on activity of regulatory enzymes of the mitogenic capacity (ERK 1/2), metabolic capacity (Akt and AMPK) and myogenic capacity (Akt and p38). Based on a dose-response study, the saturating dose for the maximum enzymatic activation is established for a concentration of 5 nM. […] Inactivation of AMPK is described in both cell models. The activation profile discovers bimodal characteristics for the action of obestatin: 1.—mitogenic activation in myoblasts; and, 2.—myogenic activation. The immunoblots are representative of 6 independent assays. […]
The tissue or cell samples were directly lysed in RIPA buffer [Tris-HCl (pH 7.2), 50 mM; NaCl, 150 mM; EDTA, 1 mM; NP-40, 1% (v/v); Sodium deoxycholate, 0.25% (w/v); protease inhibitors (Sigma); phosphatise inhibitors (Sigma)]. The lysates were clarified by centrifugation (14,000×g during 15 min at 4° C.) and the protein concentration was quantified using QuantiPro™ BCA assay kit (Sigma). […] The immunoreactive bands were detected by chemiluminescence (Pierce ECL Western Blotting Substrate; Thermo Scientific, Ill., USA). […]

[1] = tested on: damaged tibialis anterior of mouse; test: Blood vessels (isolectin positive) per myofiber in damaged tibialis anterior of mouse; assay type: in vivo, Swiss mice; conditions: 300 nmol/kg/24 h; 10 days after induction of muscle damage
Experimental: FIG. 13. Quantification of the blood vessels per myofiber in the tibialis anterior 10 days after the induction of muscle damage and exogenous treatment of obestatin (300 nmol/kg/24 h) or vehicle (PBS). Quantification of the number of blood vessels (immunofluorescence: positivity to isolectin) per myofiber (mean±standard error; *, p<0.005) of sections of the tibialis anterior treated with obestatin (300 nmol/kg/24 h) or PBS (control) 10 days after inducing the damage.
For the tissue immunofluorescence analysis, frozen sections were obtained which were fixed using a buffered solution of PBS-paraformaldehyde during 15 min, washed, permeabilized and blocked with PBT during 30 min, and later incubated with the corresponding primary antibody (anti-eMHC, anti-laminin antibody) diluted in PBT (1:50) during 12 h at 4° C. After three washes with PBS, the tissue sections were incubated with secondary antibody in PBT (1:1000) during 45 min at 37° C. […] The digital images of the cell culture were acquired with a Leica TCS-SP2 confocal microscope.
The mice (30 g; n=50) were maintained in 12 h light-darkness cycled with free access to standard diet and water. To induce the muscle damage, the tibialis anterior muscle (TA) was extracted under anaesthesia and subjected to three cycles of damage due to cold contact applying along the length of the muscle a metal bar cooled in liquid nitrogen. […]

[2] = tested on: skeletal muscle tissue (gastrocnemius and soleus) in male rats; test: Chronic administration by osmotic mini-pumps: myogenic markers in gastrocnemius and soleus of rat, immunoblot; assay type: in vivo, Sprague-Dawley rats; conditions: 300 nmol/kg body weight/24 h s.c. infusion, 72 h
Experimental: FIG. 7. Effect of the chronic administration of obestatin on the myogenic markers in the gastrocnemius and soleus of rat (animal model). Effect of the administration during 72 hours of obestatin (300 nmol/kg/24 h; 72 h) by the implantation of mini-pumps on early and later markers of myogenesis in skeletal muscle tissue (gastrocnemius and soleus) in male rats. A: Western-blot analysis. First column: control; second column: treatment with obestatin. B: Protein levels in gastrocnemius. White column: control; grey column: treatment with obestatin. The protein levels are expressed as % of the control obtained from the group of animals with implantation of mini-pumps with saline (n=10 per group; mean±standard error; *, p<0.05). C: Protein levels in soleus. White column: control; grey column: treatment with obestatin. The protein levels are expressed as % of the control obtained from the group of animals with implantation of mini-pumps with saline (n=10 per group; mean±standard error; *, p<0.05).
The tissue or cell samples were directly lysed in RIPA buffer [Tris-HCl (pH 7.2), 50 mM; NaCl, 150 mM; EDTA, 1 mM; NP-40, 1% (v/v); Sodium deoxycholate, 0.25% (w/v); protease inhibitors (Sigma); phosphatise inhibitors (Sigma)]. The lysates were clarified by centrifugation (14,000×g during 15 min at 4° C.) and the protein concentration was quantified using QuantiPro™ BCA assay kit (Sigma). For immunoblot, equal amounts of protein were loaded which were fractionated in SOS-PAGE gels and transferred to nitrocellulose membranes. The immunoreactive bands were detected by chemiluminescence (Pierce ECL Western Blotting Substrate; Thermo Scientific, Ill., USA).
Two animal models were used for the in vivo assays: Sprague-Dawley rats and Swiss mice. The Sprague-Dawley (250 g; n=20) rats were maintained in 12 h light-darkness cycled with free access to standard diet and water. The Alzet® mini-pumps (model 1003D) were subcutaneously implanted. The animals were assigned to one of the two experimental groups (n=10/group): 1) control group (mini-pumps with saline); and, 2) obestatin group (mini-pumps implanted containing 300 nmol/kg weight/24 h). These mini-pumps allow a diffusion flow of 1 microL/h. After 72 h, the rats were sacrificed by cervical dislocation under anaesthetic treatment, and soleus and gastrocnemius tissues were extracted for immunoblot analysis.
Based on the short mean life of obestatin in plasma, osmotic mini-pumps were used for the in vivo administration of this peptide. Two groups of male rats were worked with: a group of 10 male rats received the continuous subcutaneous infusion of obestatin during 72 h (300 nmol/kg body weight/24 h); and another group of 10 rats received the equivalent volume of PBS during 72 h. The animals were sacrificed and the gastrocnemius and soleus muscles were removed and processed to analyse the expression of key factors of muscular differentiation by immunoblot. […] The increase in both types of muscle of the family of regulatory factors of different stages in myogenesis show a clear muscle regenerative capacity for obestatin.

activation dynamics of Akt, p38, ERK1/2 and AMPKa compared with myoblasts (L6E9 myotubes): similar
Substance: obestatin
capillary density (isolectin-positive blood vessels per myofiber) in relation to vehicle (PBS) [1]: significant increase
MHC protein levels in relation to control rats ([2]; gastrocnemius and soleus): significantly increased
Myf5 protein levels in relation to control rats ([2]; gastrocnemius and soleus): significantly increased
Myf6 protein levels in relation to control rats ([2]; gastrocnemius and soleus): significantly increased
MyoD protein levels in relation to control rats ([2]; gastrocnemius and soleus): significantly increased
Pax-7 protein levels in relation to control rats ([2]; gastrocnemius and soleus): significantly increased
myogenin protein levels in relation to control rats ([2]; gastrocnemius and soleus): significantly increased
Six-1 protein levels in relation to control rats ([2]; gastrocnemius): no effect at all
Six-1 protein levels in relation to control rats ([2]; soleus): significant increased
